Reference: the supplement of paper PMC10307832

Legend:
Experiment in all cases: relative viability (nuclei count vs DMSO), 5 days (fraction); higher = more cells survive
[1] = tested on: NCI-H460
Summary of the method: (§1)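 Each reported value is a median over duplicate plates. It expresses relative viability: treated-well nuclei count divided by vehicle-well nuclei count. Lung cancer cell lines in 1536-well plates were dosed by pin tool a day after seeding, alone with one drug or with a fixed anchor-drug dose plus five library-drug doses (not always all listed) in √10 steps, and nuclei were counted after 5 days.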

[2] = tested on: 201T
Summary of the method: as §1

[3] = tested on: LCLC-103H
Summary of the method: as §1

[4] = tested on: NCI-H2347
Summary of the method: as §1

[5] = tested on: LC-2-ad
Summary of the method: as §1

[6] = tested on: NCI-H596
Summary of the method: as §1

[7] = tested on: HCC-44
Summary of the method: as §1

[8] = tested on: A-427
Summary of the method: as §1

[9] = tested on: NCI-H1650
Summary of the method: as §1

[10] = tested on: LU99A
Summary of the method: as §1

[11] = tested on: PC-14
Summary of the method: as §1

[12] = tested on: COR-L23
Summary of the method: as §1

[13] = tested on: NCI-H1793
Summary of the method: as §1

[14] = tested on: NCI-H23
Summary of the method: as §1

[15] = tested on: SW 900
Summary of the method: as §1

[16] = tested on: LK-2
Summary of the method: as §1

[17] = tested on: NCI-H2228
Summary of the method: as §1

[18] = tested on: H3255
Summary of the method: as §1

[19] = tested on: SW 1573
Summary of the method: as §1

[20] = tested on: LCLC-97TM1
Summary of the method: as §1

[21] = tested on: NCI-H727
Summary of the method: as §1

Work on `CC(=O)O[C@@]12CO[C@@H]1C[C@H](O)[C@@]1(C)C(=O)[C@H](O)C3=C(C)[C@@H](OC(=O)[C@H](O)[C@@H](NC(=O)OC(C)(C)C)c4ccccc4)C[C@@](O)([C@@H](OC(=O)c4ccccc4)[C@H]21)C3(C)C` [Docetaxel] + O=C(CCCCCCC(=O)Nc1ccccc1)NO [Vorinostat] (partner 1 µM) yielded a relative viability ([1]; first compound 0.0002 µM) of 0.637, a relative viability ([1]; first compound 0.000632 µM) of 0.349 and a relative viability ([1]; first compound 0.002 µM) of 0.0613. The relative viability ([1]; first compound 0.006325 µM) was 0.0388, the relative viability ([1]; first compound 0.02 µM) was 0.0166 and the relative viability ([2]; first compound 0.0002 µM) was 0.885. For the same compound, the relative viability ([2]; first compound 0.000632 µM) was 0.932, the relative viability ([2]; first compound 0.002 µM) was 0.516 and the relative viability ([2]; first compound 0.006325 µM) was 0.478. The relative viability ([2]; first compound 0.02 µM) was 0.291, the relative viability ([3]; first compound 0.0002 µM) was 0.703 and the relative viability ([3]; first compound 0.000632 µM) was 0.695. It also gave a relative viability ([3]; first compound 0.002 µM) of 0.513, a relative viability ([3]; first compound 0.006325 µM) of 0.604 and a relative viability ([3]; first compound 0.02 µM) of 0.47. For the same compound, the relative viability ([4]; first compound 0.0002 µM) was 0.726, the relative viability ([4]; first compound 0.000632 µM) was 0.554 and the relative viability ([4]; first compound 0.002 µM) was 0.418. The relative viability ([4]; first compound 0.006325 µM) was 0.434, the relative viability ([4]; first compound 0.02 µM) was 0.33 and the relative viability ([5]; first compound 0.0002 µM) was 0.472. For the same compound, the relative viability ([5]; first compound 0.000632 µM) was 0.275, the relative viability ([5]; first compound 0.002 µM) was 0.209 and the relative viability ([5]; first compound 0.006325 µM) was 0.227. It also gave a relative viability ([5]; first compound 0.02 µM) of 0.152, a relative viability ([6]; first compound 0.0002 µM) of 0.639 and a relative viability ([6]; first compound 0.000632 µM) of 0.46. For the same compound, the relative viability ([6]; first compound 0.002 µM) was 0.393, the relative viability ([6]; first compound 0.006325 µM) was 0.307 and the relative viability ([6]; first compound 0.02 µM) was 0.144. The relative viability ([7]; first compound 0.0002 µM) was 0.994, the relative viability ([7]; first compound 0.000632 µM) was 1.14 and the relative viability ([7]; first compound 0.002 µM) was 0.861. The relative viability ([7]; first compound 0.006325 µM) was 0.515, the relative viability ([7]; first compound 0.02 µM) was 0.493 and the relative viability ([8]; first compound 0.0002 µM) was 0.824. It also gave a relative viability ([8]; first compound 0.000632 µM) of 0.822, a relative viability ([8]; first compound 0.002 µM) of 0.621 and a relative viability ([8]; first compound 0.006325 µM) of 0.36. It also gave a relative viability ([8]; first compound 0.02 µM) of 0.27, a relative viability ([9]; first compound 0.0002 µM) of 0.54 and a relative viability ([9]; first compound 0.000632 µM) of 0.499. The relative viability ([9]; first compound 0.002 µM) was 0.226, the relative viability ([9]; first compound 0.006325 µM) was 0.196 and the relative viability ([9]; first compound 0.02 µM) was 0.162. The relative viability ([10]; first compound 0.0002 µM) was 0.529, the relative viability ([10]; first compound 0.000632 µM) was 0.373 and the relative viability ([10]; first compound 0.002 µM) was 0.278. It also gave a relative viability ([10]; first compound 0.006325 µM) of 0.269, a relative viability ([10]; first compound 0.02 µM) of 0.173 and a relative viability ([11]; first compound 0.0002 µM) of 0.725. The relative viability ([11]; first compound 0.000632 µM) was 0.245, the relative viability ([11]; first compound 0.002 µM) was 0.079 and the relative viability ([11]; first compound 0.006325 µM) was 0.0579. It also gave a relative viability ([11]; first compound 0.02 µM) of 0.0282, a relative viability ([12]; first compound 0.0002 µM) of 0.492 and a relative viability ([12]; first compound 0.000632 µM) of 0.248. The relative viability ([12]; first compound 0.002 µM) was 0.151, the relative viability ([12]; first compound 0.006325 µM) was 0.154 and the relative viability ([12]; first compound 0.02 µM) was 0.0838. The relative viability ([13]; first compound 0.0002 µM) was 0.724, the relative viability ([13]; first compound 0.000632 µM) was 0.479 and the relative viability ([13]; first compound 0.002 µM) was 0.199. For the same compound, the relative viability ([13]; first compound 0.006325 µM) was 0.26, the relative viability ([13]; first compound 0.02 µM) was 0.163 and the relative viability ([14]; first compound 0.0002 µM) was 0.55. For the same compound, the relative viability ([14]; first compound 0.000632 µM) was 0.305, the relative viability ([14]; first compound 0.002 µM) was 0.165 and the relative viability ([14]; first compound 0.006325 µM) was 0.155. For the same compound, the relative viability ([14]; first compound 0.02 µM) was 0.0848, the relative viability ([15]; first compound 0.0002 µM) was 0.523 and the relative viability ([15]; first compound 0.000632 µM) was 0.284. For the same compound, the relative viability ([15]; first compound 0.002 µM) was 0.277, the relative viability ([15]; first compound 0.006325 µM) was 0.203 and the relative viability ([15]; first compound 0.02 µM) was 0.235. The relative viability ([16]; first compound 0.0002 µM) was 0.313, the relative viability ([16]; first compound 0.000632 µM) was 0.217 and the relative viability ([16]; first compound 0.002 µM) was 0.15. For the same compound, the relative viability ([16]; first compound 0.006325 µM) was 0.183, the relative viability ([16]; first compound 0.02 µM) was 0.152 and the relative viability ([17]; first compound 0.0002 µM) was 0.565. For the same compound, the relative viability ([17]; first compound 0.000632 µM) was 0.145, the relative viability ([17]; first compound 0.002 µM) was 0.168 and the relative viability ([17]; first compound 0.006325 µM) was 0.151. For the same compound, the relative viability ([17]; first compound 0.02 µM) was 0.145, the relative viability ([18]; first compound 0.0002 µM) was 0.785 and the relative viability ([18]; first compound 0.000632 µM) was 0.826. It also gave a relative viability ([18]; first compound 0.002 µM) of 0.629, a relative viability ([18]; first compound 0.006325 µM) of 0.345 and a relative viability ([18]; first compound 0.02 µM) of 0.346. It also gave a relative viability ([19]; first compound 0.0002 µM) of 0.547, a relative viability ([19]; first compound 0.000632 µM) of 0.305 and a relative viability ([19]; first compound 0.002 µM) of 0.228. The relative viability ([19]; first compound 0.006325 µM) was 0.174, the relative viability ([19]; first compound 0.02 µM) was 0.126 and the relative viability ([20]; first compound 0.0002 µM) was 0.364. For the same compound, the relative viability ([20]; first compound 0.000632 µM) was 0.187, the relative viability ([20]; first compound 0.002 µM) was 0.116 and the relative viability ([20]; first compound 0.006325 µM) was 0.104. The relative viability ([20]; first compound 0.02 µM) was 0.0624, the relative viability ([21]; first compound 0.0002 µM) was 1.08 and the relative viability ([21]; first compound 0.000632 µM) was 1.13. For the same compound, the relative viability ([21]; first compound 0.002 µM) was 1.2, the relative viability ([21]; first compound 0.006325 µM) was 0.748 and the relative viability ([21]; first compound 0.02 µM) was 0.67.
